The record followed here is patent US12643899B2, “Antiviral agents, uses thereof and methods for their preparation” (The University of British Columbia, priority 2020, dated 2026).

A word on the CC50: it is the concentration at which the toxic effect on the cells reaches its halfway point. A high value points to lower toxicity to the cells. Usually IC50 stands for the midpoint of a concentration-inhibition curve.

The subject of series [1] is ZIKV. Briefly: NS1 and dsRNA in ZIKV-infected brain organoids. It is filed as cell-based, Zika virus. The following applies: 10 μM, 69 hours, MOI 1. How it is done: FIG. 17 is a schematic showing the general method 20 used in Example 6. Referring to FIG. 17, following growth of the brain organoids in STEMdiff™ media 22 (4 organoids/well), the media was aspirated 24. Then, 500 μL ZIKV at the desired MOI in fresh media was added 26 and the brain organoids incubated at 37° C. for 3 hours with gentle shaking 28. The brain organoids were then washed with 2×1 mL PBS 30, and fresh media and CA or cladoniamide C (CC) added to the desired concentration 32 prior to incubation for the desired time at 37° C. 34. The supernatant was collected and frozen at −86° C. 36 prior to analysis and the brain organoids transferred to an Eppendorf with paraformaldehyde for electron microscopy 38.
FIG. 18 is a plot showing the anti-ZIKV activity of cladoniamide A (incubation with 1 μM CA for 72 hours; 2 biological replicates, each with 4 organoids/well) using four brain organoid systems. There was a greater than 4-log reduction in extracellular ZIKV titer when treated with CA. […] FIGS. 20 and 21 show plots showing the anti-ZIKV activity of CA and CC (incubation with 10 μM CA or CC for 69 hours, MOI 1; 4 technical replicates as there were 4 organoids/[…]).

The next series deals with SARS-CoV-2. Briefly: SARS-CoV-2 intracellular viral RNA and nucleocapsid protein in Caco-2 cells. The format is cell-based. Particulars: Human Caco-2 cells, 3 hours pre-treatment.
The subject of series [2] is ZIKV. Briefly: ZIKV viral dsRNA imaging (Cellomics ArrayScan VTI) in A549 cells. The following applies: 15 μM, 1 h pre-treatment, MOI 1, 48 h. The format is cell-based, Zika virus.
A further series deals with DENV. Briefly: Activity against DENV (summary statement, method not described). The format is cell-based, dengue virus.
The subject of series [3] is ZIKV. The experiment in a line: ZIKV infectivity by semisolid overlay plaque assay after pre-treatment of A549 and U87 MG cells. The format is cell-based, Zika virus. The following applies: CD 15 μM, A549 and U87 MG cells, FIG. 3.
In another series the test system is A549 cells. Briefly: MTS cytotoxicity assay in A549 cells. The format is cell-based, human. The following applies: 48 h. The method, then: An MTS assay was performed to determine the cytotoxicity concentration 50% (CC50) of cladoniamide A (CA) in human A549 cells, a cell line from human lung carcinoma. Various concentrations of CA were added to cultured A549 cells and incubated (37° C., 5% CO2) for 48 h. Cell viability was then measured by an MTS assay kit (CellTiter 96™ Aqueous One Solution cell proliferation assay, Promega) according to the manufacturer's instructions. Curve fitting was performed in Igor Pro (WaveMetrics) using a hyperbolic fit algorithm (FIG. 1). The CC50 of CA in A549 cells was determined to be 54±5 μM. An MTS assay was also performed to determine the CC50 of CA in human U87 MG cells, a cell line from human brain. Various concentrations of CA were added to cultured U87 MG cells and incubated (37° C., 5% CO2) for 48 h. Cell viability was then measured by an MTS assay kit (CellTiter 96 Aqueous One Solution cell proliferation assay, Promega) according to the manufacturer's instructions. Curve fitting was performed in Igor Pro (WaveMetrics) using a hyperbolic fit algorithm (FIG. 2).

For series [4], the system named is ZIKV. Briefly: Secreted NS1 (sNS1) ELISA, ZIKV-infected A549 cells. Particulars: 24 h pre-treatment, MOI 1.0, 2 d. It is filed as cell-based, Zika virus. How it is done: Error bars represent SD among 2 biological replicates.
Cultured A549 cells were treated with various concentrations of CA or PF-429242 for 24 h before being washed with PBS and inoculated with ZIKV (ZIKV strain VR 1843, Puerto Rico, 2015; ATCC) at MOI 1.0 for 1 h. Following the removal of the inoculum, cells were incubated in fresh media for 2 d before the supernatant was collected, clarified, and secreted NS1 protein abundance was measured by an ELISA kit (BioFront Technologies) according to the manufacturer's instructions. Curve fitting was performed in Igor Pro (WaveMetrics) using a hyperbolic fit algorithm (FIG. 4; upper and middle plots) and IC50 and TI values obtained. IC50 and TI values were also obtained for CA via plaque assay (PFU; FIG. 4, lower plot). FIG. 4 (upper plot) is an ED50 curve for the PF inhibitor based on the detection of secreted Non-Structural protein 1 (sNS1), secreted viral biomarker. sNS1 was detected using an Elisa test (commercially available). FIG. 4 (middle plot) is an ED50 curve for CA based on the detection of secreted Non-Structural protein 1 (sNS1), secreted viral biomarker. sNS1 was detected using an Elisa test (commercially available).
(In general: An ELISA detects its analyte on a solid surface through an enzyme-linked reagent.)

As for `COc1c2n(c3ccccc13)[C@]1(O)C(=O)N(C)C(=O)[C@]1(O)c1c-2[nH]c2ccccc12` [CC, (11S,15R)-11,15-dihydroxy-23-methoxy-13-methyl-3,13,16-triazahexacyclo[14.7.0.0^2,10.0^4,9.0^11,15.0^17,22]tricosa-1(23),2(10),4,6,8,17,19,21-octaene-12,14-dione], the “anti-ZIKV activity in brain organoids (NS1, dsRNA)” value in the series with ZIKV [1] is given as “showed anti-ZIKV activity”. `CNC(=O)[C@]1(O)C(=O)c2c([nH]c3ccc(Cl)cc23)-c2c(OC)c3ccccc3n21` [CD, (12R)-7-chloro-12-hydroxy-20-methoxy-N-methyl-11-oxo-3,13-diazapentacyclo[11.7.0.0^2,10.0^4,9.0^14,19]icosa-1(20),2(10),4(9),5,7,14,16,18-octaene-12-carboxamide]: the “antiviral effect against SARS-CoV-2” value in the series with SARS-CoV-2 is “no antiviral effect”. Also, the “activity against ZIKV (viral dsRNA)” value with ZIKV [2] is reported as “did not show any inhibitory effect”. The “activity against DENV” value in the series on DENV is on record as “no activity”. Moreover, the “inhibitory effect on production of infectious ZIKV virions” value in the series with ZIKV [3] is on record as “did not show any inhibitory effect”. In the case of `CNC(=O)[C@]1(O)C(=O)c2c([nH]c3ccc(Cl)cc23)-c2c(OC)c3cc(Cl)ccc3n21` [CE, (12R)-7,17-dichloro-12-hydroxy-20-methoxy-N-methyl-11-oxo-3,13-diazapentacyclo[11.7.0.0^2,10.0^4,9.0^14,19]icosa-1(20),2(10),4(9),5,7,14(19),15,17-octaene-12-carboxamide], in the series on ZIKV [2], the “activity against ZIKV (viral dsRNA)” value is given as “did not show any inhibitory effect”.

Turning to `CNC(=O)[C@@]1(O)C(=O)n2c(c(OC)c3ccccc32)-c2[nH]c3ccc(Cl)cc3c21` [CF, (11R)-7-chloro-11-hydroxy-20-methoxy-N-methyl-12-oxo-3,13-diazapentacyclo[11.7.0.0^2,10.0^4,9.0^14,19]icosa-1(20),2(10),4(9),5,7,14,16,18-octaene-11-carboxamide], the “activity against ZIKV (viral dsRNA)” value in the series with ZIKV [2] was “did not show any inhibitory effect”. Molecule `CCN(CC)Cc1ccc(C(=O)N(CCc2ccccc2OC)[C@@H]2CCNC2)cc1` [PF, PF-429242, reference compound] showed a CC50 in the series with A549 cells of 69 µM. In addition, the IC50 with ZIKV [4] was found to be 13 µM.
